Data: US20250017903A1, “USE OF EDARAVONE IN TREATMENT OF AUTISM SPECTRUM DISORDER” (SUZHOU AUZONE BIOLOGICAL TECHNOLOGY CO., LTD., priority 2021, published 2025)

Legend:
[1] = test system: glutathione S-transferase (GST); assay: GST activity detection in brain tissue of VPA model rats; assay type: in vivo, rat; conditions: for GST activity in the hippocampus (HIP) / GST activity in the prefrontal cortex (PFC): after 28 days of gavage, mean ± SE
Description: (§1) On the 26th day after the offspring were born, the modeled VPA group was randomly divided into 6 groups: placebo group (n=19, soluplus 428 mg/kg), positive drug (cromolyn sodium) group (n=14, cromolyn sodium 6.3 mg/kg), positive drug solvent (NS) group (n=12, equal dose of normal saline), EDA low-dose group (n=12, Edaravone 3 mg/kg), EDA medium-dose group (n=12, Edaravone 10 mg/kg) and EDA high-dose group (n=22, Edaravone 30 mg/kg); and another CON group (n=9). The positive drug group and the positive drug solvent group were given intraperitoneal injection, and the placebo group and each dose group of EDA were administrated by oral gavage, once a day for 28 consecutive days. Three-chamber social tests were conducted after 14 and 28 days of administration, and an open field test was conducted after 28 days of administration. After the animals were sacrificed, 6 animals were randomly selected from each group of the placebo group and each dose group of EDA, and the prefrontal cortex, hippocampus, cerebellum and blood were collected to detect oxidative stress-related indicators, so as to detect the antioxidant capacity of the body.
After 28 days of gavage treatment, the results of glutathione S-transferase (GST) activity detection in the prefrontal cortex (PFC) and hippocampus (HIP) are shown in Table 4.

[2] = test system: superoxide dismutase (SOD); assay: SOD activity detection in brain tissue of VPA model rats; assay type: in vivo, rat; conditions: for SOD activity in the cerebellum (CE) / SOD activity in the prefrontal cortex (PFC): after 28 days of gavage, mean ± SE
Description: as §1
After 28 days of gavage treatment, the results of superoxide dismutase (SOD) activity detection in the prefrontal cortex (PFC) and cerebellum (CE) are shown in Table 3.

cysteine (Cys) = assay: Cys content detection in serum of VPA model rats; assay type: in vivo, rat; conditions: for Cys content in serum: after 28 days of gavage, mean ± SE
Description: as §1

[3] = test system: VPA-induced autism model rats; assay: Open field test (grooming time) in VPA-induced rat autism model; assay type: in vivo; conditions: for Grooming time: VPA rats, mean ± SE, in s (unit assumed); for Grooming time compared with before treatment: self-comparison, p<0.05 (FIG. 5)
Description: (§2) Twenty-five SD pregnant rats were given a single intraperitoneal injection of 500 mg/kg sodium valproate (VPA) on 12.5 embryonic day and delivered on 21 embryonic day, and the male offspring were retained as the VPA group. Five pregnant rats in the control group were given a single intraperitoneal injection of normal saline of the same amount on 12.5 embryonic day and delivered on 21 embryonic day; and the male offspring were designated as the CON group.
(§3) When the offspring rats were 25th day old, an open field test was conducted to observe the grooming time, which reflects the repetitive and stereotyped behaviors of the animals); a three-chamber social test was conducted to observe the Social Index (SI), Social Index=(Time when the animal enters the unfamiliar rat area-time when the animal enters the empty cage area)÷(time when the animal enters the unfamiliar rat area+time when the animal enters the empty cage area), reflecting the social ability of experimental animals.
as §1

[4] = test system: VPA-induced autism model rats; assay: Three-chamber social test (social index) in VPA-induced rat autism model; assay type: in vivo; conditions: for Social index (SI): VPA rats, mean ± SE
Description: as §2, §3, §1

[5] = test system: reduced glutathione (GSH); assay: GSH detection in hippocampus and serum of VPA model rats; assay type: in vivo, rat; conditions: for GSH activity in the hippocampus (HIP) / GSH activity in the serum: after 28 days of gavage, mean ± SE
Description: as §1
After 28 days of gavage treatment, the results of reduced glutathione (GSH) activity detection in hippocampus (HIP) and serum are shown in Table 5.

[6] = Day 28, EDA 3 mg/kg oral gavage once a day
[7] = Day 28, EDA 10 mg/kg oral gavage once a day
[8] = Day 28, EDA 30 mg/kg oral gavage once a day
[9] = before treatment (baseline), EDA 3 mg/kg group
[10] = before treatment (baseline), EDA 10 mg/kg group
[11] = before treatment (baseline), EDA 30 mg/kg group
[12] = after 14 days of treatment, each dose group of EDA and cromolyn sodium group, p<0.01 (FIG. 4)
[13] = Day 28, cromolyn sodium 6.3 mg/kg intraperitoneal once a day
[14] = before treatment (baseline), cromolyn sodium 6.3 mg/kg group

Question: How did the “GST activity in the hippocampus (HIP)” value ([1]; EDA 3 mg/kg) turn out when `CC1=NN(c2ccccc2)C(=O)C1` [EDA, 3-methyl-1-phenyl-2-pyrazolin-5-one] was run?
Answer: Its value is 144.5 ± 59.64 U/mgprot.

Question: What about the “GST activity in the prefrontal cortex (PFC)” value ([1]; EDA 3 mg/kg) of the same molecule?
Answer: The value was 39.54 ± 13.34 U/mgprot.

Question: And the “GST activity in the hippocampus (HIP)” value ([1]; EDA 10 mg/kg)?
Answer: The value was 117.7 ± 28.12 U/mgprot.

Question: And the “GST activity in the prefrontal cortex (PFC)” value ([1]; EDA 10 mg/kg)?
Answer: The value was 46.93 ± 13.31 U/mgprot.

Question: And the “GST activity in the hippocampus (HIP)” value ([1]; EDA 30 mg/kg)?
Answer: Its value is 295.4 ± 54.67 U/mgprot.

Question: And the “GST activity in the prefrontal cortex (PFC)” value ([1]; EDA 30 mg/kg)?
Answer: The value was 103.8 ± 22.27 U/mgprot.

Question: What about the “GST activity in the prefrontal cortex (PFC) compared with the placebo group” value ([1]; high-dose EDA group, p<0.01 (FIG. 9)) of the same molecule?
Answer: The value was “significantly increased”.

Question: And the “GST activity in the hippocampus (HIP) compared with the placebo group” value ([1]; high-dose EDA group, p<0.01 (FIG. 10))?
Answer: The value was “significantly increased”.

Question: What about the “SOD activity in the prefrontal cortex compared with the placebo group” value ([2]; EDA medium-dose and high-dose groups, p<0.05, high dose p<0.001 (FIG. 7)) of the same molecule?
Answer: The value was “significantly increased”.

Question: And the “SOD activity in the cerebellum (CE)” value ([2]; EDA 3 mg/kg)?
Answer: The value was 67.04 ± 11.3 U/mgprot.

Question: What about the “SOD activity in the prefrontal cortex (PFC)” value (from here on “SOD activity … (PFC)”) ([2]; EDA 3 mg/kg) of the same molecule?
Answer: Its value is 124.6 ± 5.73 U/mgprot.

Question: What about the “SOD activity in the cerebellum (CE)” value ([2]; EDA 10 mg/kg) of the same molecule?
Answer: The value was 83.07 ± 3.39 U/mgprot.

Question: And the “SOD activity … (PFC)” value ([2]; EDA 10 mg/kg)?
Answer: Its value is 203.4 ± 14.37 U/mgprot.

Question: What about the “SOD activity in the cerebellum (CE)” value ([2]; EDA 30 mg/kg) of the same molecule?
Answer: The value was 138.7 ± 18.62 U/mgprot.

Question: And the “SOD activity … (PFC)” value ([2]; EDA 30 mg/kg)?
Answer: The value was 315 ± 42.53 U/mgprot.

Question: And the “Cys content in the blood compared with the placebo group” value (cysteine (Cys); EDA high-dose group, after 28 days of treatment, p<0.0001 (FIG. 13))?
Answer: Its value is “significantly higher”.

Question: What about the “Cys content in serum” value (cysteine (Cys); EDA 3 mg/kg) of the same molecule?
Answer: Its value is 0.35 ± 0.05 µmol/mL.

Question: What about the “Cys content in serum” value (cysteine (Cys); EDA 10 mg/kg) of the same molecule?
Answer: Its value is 0.38 ± 0.13 µmol/mL.

Question: What about the “Cys content in serum” value (cysteine (Cys); EDA 30 mg/kg) of the same molecule?
Answer: Its value is 1.15 ± 0.10 µmol/mL.

Question: What about the Grooming time [3, 6] of the same molecule?
Answer: The Grooming time was 6.29 ± 1.72.

Question: What about the Grooming time [3, 7] of the same molecule?
Answer: Its Grooming time is 5.04 ± 1.67.

Question: What about the Grooming time [3, 8] of the same molecule?
Answer: Its Grooming time is 17.27 ± 5.78.

Question: What about the “Grooming time compared with the placebo group” value ([3]; after 28 days of continuous gavage, each dose group of EDA, p<0.05, low and medium dose p<0.01 (FIG. 6)) of the same molecule?
Answer: The value was “significantly reduced”.

Question: And the “Grooming time compared with before treatment” value ([3]; after 28 days of treatment)?
Answer: Its value is “significantly reduced”.

Question: And the “Grooming time compared with the positive drug (cromolyn sodium) group” value ([3]; after 28 days, EDA low-dose (3 mg/kg) and medium-dose (10 mg/kg) groups (FIG. 6))?
Answer: Its value is “significantly reduced”.

Question: And the Grooming time [3, 9]?
Answer: Its Grooming time is 29.17 ± 5.82.

Question: And the Grooming time [3, 10]?
Answer: Its Grooming time is 20.76 ± 4.42.

Question: What about the Grooming time [3, 11] of the same molecule?
Answer: Its Grooming time is 36.3 ± 5.08.

Question: And the “Social index (SI)” value ([4]; Day 14, EDA 3 mg/kg oral gavage once a day)?
Answer: Its value is 0.37 ± 0.14.

Question: What about the “Social index (SI)” value ([4]; Day 14, EDA 10 mg/kg oral gavage once a day) of the same molecule?
Answer: The value was 0.42 ± 0.15.

Question: And the “Social index (SI)” value ([4]; Day 14, EDA 30 mg/kg oral gavage once a day)?
Answer: The value was 0.51 ± 0.11.

Question: What about the “Social index (SI)” value [4, 6] of the same molecule?
Answer: The value was 0.48 ± 0.10.

Question: And the “Social index (SI)” value [4, 7]?
Answer: The value was 0.53 ± 0.09.

Question: What about the “Social index (SI)” value [4, 8] of the same molecule?
Answer: The value was 0.55 ± 0.06.

Question: What about the “Social index compared with the placebo group” value [4, 12] of the same molecule?
Answer: Its value is “significantly improved”.

Question: And the “Social index compared with the placebo group” value ([4]; after 28 days of treatment, each dose group of EDA, p<0.05, high dose p<0.01 (FIG. 4))?
Answer: Its value is “significantly improved”.

Question: And the “Social index (SI)” value [4, 9]?
Answer: Its value is −0.12 ± 0.11.

Question: And the “Social index (SI)” value [4, 10]?
Answer: The value was −0.07 ± 0.15.

Question: What about the “Social index (SI)” value [4, 11] of the same molecule?
Answer: Its value is −0.04 ± 0.12.

Question: What about the “Social index compared with before treatment” value ([4]; each dose group, after 14 and 28 days of continuous gavage, self-comparison (FIG. 3)) of the same molecule?
Answer: The value was “increased significantly”.

Question: What about the “GSH activity in the serum compared with the placebo group” value ([5]; EDA high-dose group, p<0.01 (FIG. 12)) of the same molecule?
Answer: The value was “even more significantly increased”.

Question: What about the “GSH activity in the hippocampus (HIP) compared with the placebo group” value ([5]; EDA high-dose group, p<0.05 (FIG. 11)) of the same molecule?
Answer: The value was “significantly increased”.

Question: And the “GSH activity in the hippocampus (HIP)” value ([5]; EDA 3 mg/kg)?
Answer: Its value is 14.44 ± 7.97 U/mgprot.

Question: What about the “GSH activity in the serum” value ([5]; EDA 3 mg/kg) of the same molecule?
Answer: The value was 9.6 ± 2.14 U/mgprot.

Question: And the “GSH activity in the hippocampus (HIP)” value ([5]; EDA 10 mg/kg)?
Answer: The value was 49.39 ± 10.34 U/mgprot.

Question: What about the “GSH activity in the serum” value ([5]; EDA 10 mg/kg) of the same molecule?
Answer: The value was 10.35 ± 1.92 U/mgprot.

Question: What about the “GSH activity in the hippocampus (HIP)” value ([5]; EDA 30 mg/kg) of the same molecule?
Answer: Its value is 78.87 ± 17.13 U/mgprot.

Question: What about the “GSH activity in the serum” value ([5]; EDA 30 mg/kg) of the same molecule?
Answer: Its value is 21.45 ± 0.86 U/mgprot.

Question: How did the Grooming time [3, 13] turn out when `O=C(O)c1cc(=O)c2c(OCC(O)COc3cccc4oc(C(=O)O)cc(=O)c34)cccc2o1` [cromolyn sodium] was run?
Answer: The Grooming time was 12.41 ± 2.01.

Question: And the “Grooming time, positive drug solvent group versus positive drug group” value ([3]; after 28 days of treatment, cromolyn sodium 6.3 mg/kg intraperitoneal (FIG. 6))?
Answer: Its value is “no significant difference”.

Question: And the “Grooming time compared with before treatment” value ([3]; after 28 days of treatment)?
Answer: The value was “significantly reduced”.

Question: What about the Grooming time [3, 14] of the same molecule?
Answer: Its Grooming time is 27.63 ± 5.78.

Question: What about the “Social index (SI)” value ([4]; Day 14, cromolyn sodium 6.3 mg/kg intraperitoneal once a day) of the same molecule?
Answer: The value was 0.08 ± 0.37.

Question: What about the “Social index (SI)” value [4, 13] of the same molecule?
Answer: Its value is 0.42 ± 0.07.

Question: And the “Social index compared with the placebo group” value [4, 12]?
Answer: Its value is “significantly improved”.

Question: What about the “Social index, positive drug versus positive drug solvent group” value ([4]; after 28 days of treatment, cromolyn sodium 6.3 mg/kg intraperitoneal (FIG. 4)) of the same molecule?
Answer: Its value is “no significant difference”.

Question: And the “Social index (SI)” value [4, 14]?
Answer: The value was −0.13 ± 0.12.
